Assays:
IL-8 = test: SASP assessment, IL-8 mRNA by qPCR; type: cell-based, human; details: HDFs; 30 μM for 5 h prior to IR; 11 days after IR
Protocol: (§1) Quantibody Human Cytokine Arrays for 20 cytokines (RayBiotech; QAH-CYT-1) were performed using conditioned media collected from primary dermal fibroblasts culture. mRNA levels of human IL-6 and IL-8 were measured by quantitative polymerase chain reaction (qPCR. Total RNA was extracted using RNeasy Mini Kit (QIAGEN, 74104). From 500 ng of total RNA, first-strand complementary DNA (cDNA) was produced using SuperScript III reverse transcriptase (Invitrogen, 18080044). Quantitative PCR was performed in a StepOnePlus Real-Time PCR system (Applied Biosystems) using Power SYBR Green PCR Master Mix (Applied Biosystems, 4367659). mRNA levels were determined with the […] and normalised to GAPDH levels.

IL-6 = test: SASP assessment, IL-6 mRNA by qPCR; type: cell-based, human
Protocol: as §1

[1] = test system: human dermal fibroblasts (HDFs); test: Seahorse analysis, ATP production normalized to MitoTracker density; type: cell-based; details: HDFs from aged donors; 30 μM, 7 h
Protocol: The Seahorse XF Cell Mito Stress Test Kit (Agilent) was used to measure oxygen consumption rates in adult dermal fibroblasts. One day prior to the assay cells were seeded at either 4000 per well or 3000 per well. Where indicated, fibroblast plates were subjected to 20Gy IR 2 h before assay. STOCKIN ([…]) or vehicle (DMSO) treatments were performed 7 h before Seahorse assays. HDFs were stained with 100 nM Mitotracker Green for mitochondrial density measurement. The Mito Stress Test was performed as per manufacturer's guidelines on a Seahorse XF96 Extracellular Flux analyser using previously optimized conditions. Following assay completion, cells were fixed in 4% PFA for 20 minutes. PFA was then removed, and cells were washed twice with PBS. Following fixation, cells were stained with Hoescht nucleic acid stain (Invitrogen) for 10 min before being washed twice in PBS. Fluorescence was subsequently measured using the PHERAstar FSX plate reader (BMG LABTECH) at 350/460 nm for normalization purposes. Following normalization, OCR measurements were interpreted from data generated from the Agilent Seahorse Wave software version 2.6.3.5. Basal respiration data in unstressed conditions is presented. OCR measurements were further normalised to mitochondrial density to obtain ATP production (pmol/min/mitochondria).

p21 = test: Immunostaining for p21 (percentage of p21-positive cells); type: cell-based, human
Protocol: (§2) Immunofluorescence analyses were performed as described previously (Carroll et al.). In brief, cells were seeded on coverslips in 24-well plates and fixed in 4% formaldehyde in PBS for 10 min at room temperature followed by permeabilization in 0.5% Triton X-100 (Sigma-Aldrich) in PBS for 4 min at room temperature (Ki67 and p21) or in methanol for 4 min at −20° C. (LC3 and p62). Cells were then blocked for 1 h in 5% normal goat serum (Sigma-Aldrich) in PBS at room temperature and incubated with primary antibodies overnight at 4° C. Cells were washed three times and incubated with the appropriate secondary antibodies for 1 h at room temperature (Thermo Fisher Scientific, A31556 and A21235, 1:1000). Cells were washed, and coverslips were mounted on slides with Prolong Gold antifade mountant with DAPI (Invitrogen). Fluorescence images were obtained as described above. The following primary antibodies were used: rabbit anti-Ki67 (Abcam, ab 15580, 1:250), rabbit anti-p21 (CST, 2947, 1:1000), mouse anti-LC3 (NanoTools, 0260-100, 1:200) and rabbit anti-p62 (MBL, PM045, 1:500).

Ki67 = test: Immunostaining for Ki67 (percentage of Ki67-positive cells); type: cell-based, human; details: HDFs; 30 μM for 5 h prior to IR; 11 days after IR
Protocol: as §2

[2] = test system: primary human dermal fibroblasts (HDFs); test: Mitophagy assay, mt-mKeima reporter, fluorescence microscopy; type: cell-based
Protocol: Primary human dermal fibroblasts (HDFs) were cultured in DMEM supplemented with 10 percent FBS, 100 units per milliliter penicillin/streptomycin, and 2 millimolar L-glutamine in a humidified atmosphere containing 5 percent carbon dioxide at 37 degrees Celsius. Stable expression of mt-mKeima was achieved through retroviral transduction (Kelly et al.). Cells stably expressing mt-mKeima were seeded in a 35 mm glass bottom dish (MatTek). The live-cell mt-Keima signal was obtained via widefield microscopy using the DMi8 and 2 filtersets to obtain the acidic (561 nm excitation, “red”) and pH-neutral (480 nm, “green”) mKeima signals. Using FIJI/ImageJ, a macro was applied to the mt-mKeima signal to extract mitolysosomes. In detail, images were masked by applying MaxEntropy threshold to the images obtained with 561 nm excitation to remove low mt-mKeima red signal and background. Then, images were generated by subtracting the signal of green mKeima from that of red mKeima. Resulting images were binarised with the MaxEntropy threshold algorithm to extract mitolysosomes. Mitophagy events were determined as the number of puncta per cell. Cells stably expressing pSu9-Halo-GFP seeded in a 35 glass bottom dish (MatTek) were stained with 1 μM Halo TMR ligand (Promega, G8251) for 48 h. Fluorescence images were obtained using an LSM700 confocal microscope (Zeiss). The number of mitolysosomes (GFP-Halo+puncta) per cell was quantified using proprietary plugin in Fiji/ImageJ. Both mKeima and pSu9-Halo-GFP reporters directly visualize frequency of mitophagy events (e.g., mitochondria delivered by autophagolysosomes to lysosomes for degradation) (Kelly et al.).

[3] = HDFs from aged donors, 30 μM, 7 h

## CC(=O)Oc1ccc(N2C(=O)C3C(Cc4ccccc4)NC4(C(=O)Nc5c4ccc(Cl)c5C)C3C2=O)cc1 (stereo not shown) [STOCKIN-57543]
IL-8
  IR-associated increase in IL-8 level (mRNA): mitigating IR-associated increases in levels of the SASP factors IL-6 and IL-8
IL-6; [3]
  levels of the SASP factor IL-6 (mRNA): decreasing levels of the SASP factor IL-6
IL-6; HDFs, 30 μM for 5 h prior to IR, 11 days after IR
  IR-associated increase in IL-6 level (mRNA): mitigating IR-associated increases in levels of the SASP factors IL-6 and IL-8
[1]
  mitochondrial function (ATP production per cell normalized to MitoTracker density): restoring
p21; [3]
  p21 expression: decreasing elevated p21 expression
p21; HDFs, treatment 5 h prior to IR
  IR-associated increased p21 expression: mitigating IR-associated increased p21 expression
Ki67
  IR-associated decrease in cellular proliferation capacity (Ki67): mitigating IR-associated decrease in cellular proliferation capacity
[2]; [3]
  functional mitophagy (mitophagy events): restoring functional mitophagy
[2]; HDFs with p62 knockdown
  rescue of suppressed basal mitophagy in the absence of p62: unable to rescue the suppression of basal mitophagy
[2]; HDFs, 30 μM for 5 h prior to 20 Gy IR
  IR-associated decrease in mitophagy: preventing IR-associated decrease in mitophagy
